Assays:
[1] = target: T1, PPAR-γ receptor (Homo sapiens, UniProt P37231); assay: biochemical; format: biochemical
T1 sequence (P37231 1-505): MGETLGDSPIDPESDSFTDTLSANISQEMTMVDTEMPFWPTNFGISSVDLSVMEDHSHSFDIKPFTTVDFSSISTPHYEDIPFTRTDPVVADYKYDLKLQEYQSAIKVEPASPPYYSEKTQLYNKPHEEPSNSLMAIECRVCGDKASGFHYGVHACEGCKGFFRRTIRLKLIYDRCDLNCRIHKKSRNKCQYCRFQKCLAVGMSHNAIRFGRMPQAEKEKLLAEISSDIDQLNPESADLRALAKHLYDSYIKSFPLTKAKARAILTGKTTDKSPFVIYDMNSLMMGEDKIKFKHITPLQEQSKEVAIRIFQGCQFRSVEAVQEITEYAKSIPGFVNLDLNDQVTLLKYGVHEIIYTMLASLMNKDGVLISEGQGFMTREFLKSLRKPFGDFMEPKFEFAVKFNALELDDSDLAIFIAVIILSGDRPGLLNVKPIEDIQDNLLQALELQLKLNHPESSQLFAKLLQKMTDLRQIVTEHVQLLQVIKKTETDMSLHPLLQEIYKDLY

[2] = target: T2, PPAR-γ receptor (Homo sapiens, UniProt P37231); assay: cell-based
T2 sequence (P37231 238-505 limits assumed): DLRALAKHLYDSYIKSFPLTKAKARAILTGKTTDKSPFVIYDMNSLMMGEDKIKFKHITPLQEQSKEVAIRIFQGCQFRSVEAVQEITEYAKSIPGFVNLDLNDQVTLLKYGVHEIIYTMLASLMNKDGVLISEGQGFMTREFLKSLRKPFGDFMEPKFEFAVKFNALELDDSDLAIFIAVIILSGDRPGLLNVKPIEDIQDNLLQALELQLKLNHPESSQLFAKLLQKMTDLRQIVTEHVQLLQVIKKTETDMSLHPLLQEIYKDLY
Description: FIG. 14: Activity of a number of compounds of the invention at the PPAR-γ receptor in cell based system (GeneBlazer) versus rosglitazone control.

| SMILES | EC50 [1] [nM] | EC50 [2] [nM] | activity in initial dose-response curves ([1]; initial dose-response curves, statement follows the PPAR-γ cell free table) |
| --- | --- | --- | --- |
| Cc1c(C(=O)c2cccc3ccccc23)c2ccccc2n1CCNc1ccc(O)c(C(=O)O)c1 [DWIN2 (X), 2-Hydroxy-5-{2-[2-methyl-3-(naphthalene-1-carbonyl)-indol-1-yl]-ethylamino}-benzoic acid] | 358 | 1050 |  |
| Cc1c(CCNc2ccc(C(=O)O)c(O)c2)c2ccccc2n1C(=O)c1cccc(Cl)c1Cl [DWIN8 (XII), 4-{2-[1-(2,3-Dichloro-benzoyl)-2-methyl-1H-indol-3-yl]-ethylamino}-2-hydroxy-benzoic acid] |  |  | not active |
| Cc1c(C(=O)c2cccc3ccccc23)c2ccccc2n1CCNc1ccc(C(=O)O)c(O)c1 [DWIN1 (IX), 2-Hydroxy-4-{2-[2-methyl-3-(naphthalene-1-carbonyl)-indol-yl]-ethylamino}-benzoic acid] | 493 | 800 |  |
